Source: patent US8263656B2 (Hoffmann-La Roche Inc., priority 2008, dated 2012)

Experiments:
[1] = tested on: DK-PGD2-induced IL-13 production in T helper type 2 (Th2) cells; experiment: DK-PGD2-Induced IL-13 Production Assay in Th2 Cells; assay type: cell-based; conditions: human Th2 cells, 500 nM DK-PGD2, 4 hrs at 37° C., ELISA; unit inferred; read-out: IC50 of inhibiting IL-13 production (values greater than 10)
Experimental: Inhibition of 13,14-dihydro-15-keto Prostaglandin D2 (DK-PGD2)-induced IL-13 production in T helper type 2 (Th2) cells was applied to evaluate compound cellular potency.
Cultures of Th2 cells were established from blood of healthy human volunteers according to the following procedure. Peripheral blood mononuclear cells (PBMC) were first isolated from 50 mL of fresh blood by Ficoll-Hypaque density gradient centrifugation, followed by CD4^+ cell purification using a CD4^+ T Cell Isolation Kit II (from Miltenyi Biotec Inc.). The CD4^+ T cells were then differentiated to Th2 cells by culturing the cells in X-VIVO 15® medium (from Cambrex BioScience Walkersville Inc.) containing 10% human AB serum (serum of blood type AB from Invitrogen Corporation), 50 U/mL of recombinant human interleukin-2 (rhIL-2) (from PeproTech Inc.) and 100 ng/mL of recombinant human interleukin-4 (rhIL-4) (from PeproTech Inc.) for 7 days. The Th2 cells were isolated using a CD294 (CRTH2) MicroBead Kit (from Miltenyi Biotec Inc.) and amplified in X-VIVO 15® medium containing 10% human AB serum and 50 U/mL of rhIL-2 for 2 to 5 weeks. In general, 70% to 80% of the Th2 cells used in the assay are CRTH2-positive when analyzed by fluorescence-activated cell sorting using the BM16 antibody (as previously described) conjugated to phycoerythrin (PE).
The spontaneous production of IL-13 by Th2 cells was determined in the absence of DK-PGD2 stimulation and the value was subtracted from that in the presence of each compound for percent inhibition and IC50 calculations.
The percent inhibition of interleukin 13 (IL-13) production for a compound at various concentrations was calculated according to the following formula, [1-(IL-13 production in the presence of compound)/(IL-13 production in the presence of 0.15% DMSO)]×100. The IC50 value, defined as the concentration of a compound that is required for 50% inhibition of IL-13 production, was calculated by fitting the percent inhibition data for 7 concentrations to a sigmoidal dose-response (4 parameter logistic) model in the XLfit® software Excel add-in program [ID Business Solutions Ltd., model 205, where F(x)=(A+(B−A)/(1+((C/x)^D)))].

[2] = target: T1, human CRTH2 (Homo sapiens, UniProt Q9Y5Y4); experiment: Human CRTH2 Receptor Binding Assay (whole cell, [3H]ramatroban competition); conditions: CHO-K1 cells expressing human CRTH2 and G-alpha16; 20 nM [3H]ramatroban; 1 hour, room temperature
T1 construct: expressed in transfected cells
T1 sequence (Q9Y5Y4 1-395): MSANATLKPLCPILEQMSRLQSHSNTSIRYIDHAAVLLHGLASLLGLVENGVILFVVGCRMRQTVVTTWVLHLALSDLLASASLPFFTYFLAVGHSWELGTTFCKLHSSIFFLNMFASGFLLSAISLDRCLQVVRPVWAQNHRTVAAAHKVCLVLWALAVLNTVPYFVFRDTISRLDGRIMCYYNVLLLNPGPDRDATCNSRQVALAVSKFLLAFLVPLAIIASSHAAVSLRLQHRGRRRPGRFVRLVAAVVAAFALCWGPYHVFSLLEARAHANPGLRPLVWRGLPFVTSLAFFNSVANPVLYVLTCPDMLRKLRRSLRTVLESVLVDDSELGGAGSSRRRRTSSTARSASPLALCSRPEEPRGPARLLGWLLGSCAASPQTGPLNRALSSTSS
Summary of the method: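 CHO-K1 cells stably expressing human CRTH2 and G-alpha16 (1.5×10^5 cells) incubated 1 h at room temperature with 20 nM [3H]ramatroban in PBS, 10 mM MgCl2, 0.06% BSA, then filtered and counted. Non-specific binding defined with 10 μM 15(R)-15-methyl PGD2; IC50 from 7-concentration 4-parameter logistic fit of specific-binding inhibition.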

SMILES | IC50 [1] [µM] | IC50 [2] [nM]
CN(C1CCCc2c1cc(Cl)c(F)c2OCC(=O)O)S(=O)(=O)c1ccc(Cl)cc1Cl (centres unmarked) [Example 2-11, {3-Chloro-5-[(2,4-dichloro-benzenesulfonyl)-methyl-amino]-2-fluoro-5,6,7,8-tetrahydro-naphthalen-1-yloxy}-acetic acid] | > 10 | 536
CN(C1CCCc2c(OCC(=O)O)cc(F)cc21)S(=O)(=O)c1ccc(Cl)cc1Cl (centres unmarked) [Example 2-16] | > 10 | 981
CN(C1CCCc2c1cc(F)c(F)c2OCC(=O)O)S(=O)(=O)c1cc(F)cc(C(F)(F)F)c1 (centres unmarked) [Example 2-24, {2,3-Difluoro-5-[(3-fluoro-5-trifluoromethyl-benzenesulfonyl)-methyl-amino]-5,6,7,8-tetrahydro-naphthalen-1-yloxy}-acetic acid] | – | 380

These reach a lower IC50 [2]. Values come first.

IC50 [1] [µM] | IC50 [2] [nM] | SMILES
> 10 | 195 | CC(C)c1ccc2c(c1OCC(=O)O)CCCC2NS(=O)(=O)c1cc(C(F)(F)F)cc(C(F)(F)F)c1 (centres unmarked) [Example 1-2, [5-(3,5-Bis-trifluoromethyl-benzenesulfonyl-amino)-2-isopropyl-5,6,7,8-tetrahydro-naphthalen-1-yloxy]-acetic acid]
> 10 | 311 | Cc1ccc2c(c1OCC(=O)O)CCCC2N(C)S(=O)(=O)c1cc(C(F)(F)F)cc(C(F)(F)F)c1 (centres unmarked) [Example 2-2, {5-[(3,5-Bis-trifluoromethyl-benzenesulfonyl)-methyl-amino]-2-methyl-5,6,7,8-tetrahydro-naphthalen-1-yloxy}-acetic acid]
> 10 | 177 | CCc1ccc2c(c1OCC(=O)O)CCCC2N(C)S(=O)(=O)c1cc(C(F)(F)F)cc(C(F)(F)F)c1 (centres unmarked) [Example 2-3, {5-[(3,5-Bis-trifluoromethyl-benzenesulfonyl)-methyl-amino]-2-ethyl-5,6,7,8-tetrahydro-naphthalen-1-yloxy}-acetic acid]
